Where no end group is shown, it is not given here.
Assays:
HIV-1IIIB = assay: HIV-1 antiviral assay (CPE reduction, MTS) in CEM-SS cells; format: cell-based; conditions: test peptide 10 micrograms per ml, 6 days post-infection
[1] = Cytotoxicity (MTS cell viability) in the HIV-1 assay; conditions: human, CEM-SS cells
Streptococcus pneumoniae = Streptococcus pneumoniae assay; format: cell-based; conditions: Streptococcus pneumoniae growth; peptide 10 micrograms per ml; read visually
in vitro = conditions: human, HepG2-2.2.15 cells
[2] = Cytotoxicity testing (CellTiter 96) in MRC-5 cells; format: cell-based; conditions: human, MRC-5 cells (human embryonal lung fibroblasts), 6 days incubation, read-out: % Cell viability
Description: Ganciclovir was used as positive control. […] For cytotxicity testing, MRC-5 cells were seeded at 2,500 cells/well in 96 well plates using growth medium. […] The following day, peptide were added and tested in duplicates. After a 6 days incubation period, cell viability was measured using CellTiter 96 Solution (Promega). Plates were incubated for additional 4 hours at 37° C.

Pseudomonas aeruginosa = Pseudomonas aeruginosa assay; format: cell-based; conditions: Pseudomonas aeruginosa growth; peptide 10 micrograms per ml; read visually
MRSA = MRSA growth; peptide 10 micrograms per ml; read visually

Molecule	% CPE reduction in HIV-1 infected CEM-SS cells (HIV-1IIIB) [%]	viability at 10 micrograms per ml [1] [%]	% inhibition (Streptococcus pneumoniae) [%]	viability at 144 h, 10 micrograms per ml (in vitro) [%]	viability at 144 h [2] [%]	% inhibition (Pseudomonas aeruginosa) [%]	% inhibition (MRSA) [%]
Cc1cn([C@H]2C[C@H](N=[N+]=[N-])[C@@H](CO)O2)c(=O)[nH]c1=O [AZT]	99						
SRNRCNDQ-NH2		100	0.0	100	100	0.0	0.0

Source: patent US20100216724A1, “USE OF F[…] (196-203 ) AS A […] AGENT” (priority 2007, published 2010)
